Source: patent US12257224B2, “Methods of administration for highly water-soluble salts of a short acting phenylalkylamine calcium channel blocker” (Milestone Pharmaceuticals Inc., priority 2021, dated 2025)

Tests used:
[1] = Formation of concentrated aqueous acid addition salt solutions of compound I; assay type: physicochemical; conditions: free base treated with methanesulfonic acid or acetic acid
PSVT [2] = experiment: Example 5: heart rate during PSVT prior to conversion to sinus rhythm; assay type: in vivo, human
Source text: Each PSVT was documented by an ambulatory cardiac monitoring system that was placed on the chest after symptoms began. Baseline (average of four values before drug administration), and every minute of heart rate data were captured from baseline until one minute before the PSVT was converted to sinus rhythm. […]

[3] = Phase 1 study (doses up to 140 mg; PR interval, MFD, TEAEs); assay type: in vivo, human
[4] = Permeation of compound I through the nasal epithelium with EDTA in the formulation
Source text: The nasal vestibule, which accounts for approximately 3-4% of the surface area of the nasal cavity, lacks tight junctions altogether and is thus not affected by calcium chelating agents. […] As such, it has been postulated that the nasal epithelium is not susceptible to permeability modulation by EDTA (Aungst, et al., Pharma. Res., 1998, 5:305-308). Additionally, the ability of EDTA to increase permeation of a compound through the nasal epithelium is attenuated as the molecular weight of the compound increases (Nakanishi, et al., Chem. Pharm. Bull., 1984, 32:1628-1632).

induced PSVT = experiment: Phase 2 study: termination of induced PSVT; assay type: in vivo, human; conditions: for mean reduction in systolic blood pressure (SBP) versus baseline: between 4 and 10 minutes after administration
Method: In a Phase 2 study, four doses (35, 70, 105, and 140 mg) were tested.

PSVT [5] = experiment: Example 2: Phase 3 study of self-administered 70 mg dose for PSVT in an at-home setting; assay type: in vivo, human
Method: A multi-center, randomized, double-blind, placebo-controlled study to evaluate the efficacy and safety of a 70 mg self-administered dose of compound I in an at-home setting was conducted. […] PSVT episodes were documented by an ambulatory Cardiac Monitoring System (CMS) placed on the chest by the patient or caregiver when symptoms began and were recorded at least 5 hours of continuous electrocardiogram (ECG).
The primary efficacy endpoint was defined as an adjudicated termination of a positively adjudicated episode of PSVT and conversion to sinus rhythm for at least 30 seconds. The primary efficacy endpoint was evaluated using the time to conversion of an episode of PSVT to sinus rhythm after study drug administration as the primary efficacy variable. The study included a screening visit, a test dose randomization visit, follow-up visits, a treatment period, and a final study visit. Before randomization, all patients received a 70 mg test dose of compound I to evaluate tolerability. The test dose administration took place at the study site under medical supervision while the patient was in sinus rhythm (SR). Patients who passed the test dose were randomized in a 2:1 ratio to 70 mg compound I or placebo. During the treatment period, all randomized patients performed a sequence of steps upon self-identifying symptoms of an episode of PSVT, including contacting a telephone coach for assistance on study procedures, applying a CMS on their chest, performing a vagal maneuver (VM), and study drug self-administration.
For administration, the patients placed the applicator of the system into their nose. The subject's held the nasal delivery system between the second and third fingers, with the thumb placed on the actuator. […] The subjects then apply pressure to the actuator, which forces the liquid solution containing the dissolved acetate salt of compound I through the device, causing the solution to be released from the tip of the applicator as a spray. The solution was administered to the patients as two single pump spray dosages in order to deliver 70 mg of compound I to the nasal epithelium.
The presence of an episode of PSVT and termination were evaluated by an independent Adjudication Committee. The Adjudication Committee's evaluations were done using the complete CMS ECG recorded during the patient's PSVT episode.

subjects in sinus rhythm = experiment: Example 4: one vs two 70 mg doses, PR interval and safety; assay type: in vivo, human
Method: A population of 46 subjects in sinus rhythm received one 70 mg dose of compound I according to the protocol of Example 2, and after several months the dose regimen of 70 mg followed by a repeat same dose of 70 mg 10 minutes later as in the protocol of Example 3.
Two dose administration followed the same protocol as single dose administration for the initial dose, however 10 minutes after the first 70 mg dose of compound I, a second 70 mg dose of compound I was administered. For the second dose, the patients were allowed to blow their nose to remove any excess fluid build-up immediately prior to self-administration of the second 70 mg dose.

[6] = Method: Randomized, double-blind, placebo-controlled, ethnobridging PK/PD study, 35, 70 and 105 mg doses were evaluated.
[7] = patients who converted to sinus rhythm
[8] = one and two 70 mg dose regimens

COC(=O)c1cccc(CCN(C)CCCC(C#N)(c2ccc(OC)c(OC)c2)C(C)C)c1 (stereo not shown) [compound I, methyl 3-(2-((4-cyano-4-(3,4-dimethoxyphenyl)-5-methylhexyl)(methyl)amino)ethyl)benzoate]
salt solution concentration attainable [1]: concentrations sufficient for nasal administration | mean change in heart rate from baseline (±SE) (PSVT [2]; 70 mg, 3 min, during PSVT): −10 bpm | mean change in heart rate from baseline (±SE) (PSVT [2]; 70 mg, 10 min, during PSVT): −16 bpm | mean change in heart rate from baseline (±SE) (PSVT [2]; 70 mg, 30 min, during PSVT): −14 bpm | mean change in heart rate from baseline (±SE) (PSVT [2]; 70 mg, 40 min, during PSVT): −13 bpm | persistence of decrease in heart rate (PSVT [2]; 70 mg, during PSVT): sustained through the 60-minute observation period | mean change in heart rate from baseline (±SE) (PSVT [2]; 70 mg, within the first minute, during PSVT): −5 bpm | maximal change from baseline in heart rate, converters to sinus rhythm in <30 minutes versus >30 minutes (PSVT [2]; [7]): significant difference | maximal change from baseline in heart rate, converters to sinus rhythm in <60 minutes versus >60 minutes (PSVT [2]; [7]): significant difference | PR interval of the ECG ([3]; 4 highest doses tested: 30, 60, 105 and 140 mg): produced an increase in the PR interval of the ECG | Treatment Emergent Adverse Effects (TEAEs) ([3]; doses higher than 70 mg): an increase in Treatment Emergent Adverse Effects (TEAEs), mainly related to nasal irritation | drug exposure and PR interval ([3]; two 30 mg doses 10 minutes apart vs single 30 mg dose): drug exposure and PR interval increased and remained elevated for a longer period | permeation through the nasal epithelium [4]: increased the permeation of compound I through the nasal epithelium | overall success rate (induced PSVT; 35 mg, at 15 minutes): 65% | treatment effect compared to placebo (induced PSVT; 35 mg, at 15 minutes): 30% | mean reduction in systolic blood pressure (SBP) versus baseline (induced PSVT; 105 mg): 11.4% | mean reduction in systolic blood pressure (SBP) versus baseline (induced PSVT; 140 mg): 15.6% | termination of induced PSVT within 15 minutes of dosing (induced PSVT; 70, 105 and 140 mg vs placebo): statistically significantly superior compared with placebo | time to conversion of PSVT to sinus rhythm (SR) (induced PSVT; 70, 105 and 140 mg vs placebo): shorter | tolerability (induced PSVT; NS 70 mg): well tolerated | mean SBP (induced PSVT; doses of 35 and 70 mg): did not drop | incidences of severe adverse events or adverse events of interest vs placebo (PSVT [5]; 70 mg): no significant differences | median time to conversion (PSVT [5]; 70 mg): 25 min | most common adverse events (PSVT [5]; 70 mg): local to the nose, including nasal irritation and congestion | patients converted to SR within 30 minutes after study drug administration (PSVT [5]; 70 mg): 54% | patient reported treatment satisfaction (TSQM-9) (PSVT [5]; 70 mg vs placebo, secondary endpoint): nominal statistically significant improvements in favor of compound I over placebo | hazard ratio HR (95% CI), time to conversion of PSVT to SR vs placebo (PSVT [5]; 70 mg, 5-hour observation period): 1.086 (0.726, 1.623) | safety and tolerability (PSVT [5]; 70 mg, over 5 hours following treatment, more than 100 patients in PSVT): safe and well tolerated | absolute difference in conversion rate vs placebo by 30 minutes (PSVT [5]; 70 mg, post hoc analysis): ~19% | AV block (subjects in sinus rhythm; [8]): No new AV block was observed | lowest systolic blood pressure seen (subjects in sinus rhythm; [8]): ≥ 99 mmHg | severe adverse reactions (subjects in sinus rhythm; [8]): No severe adverse reactions were seen | increase in PR interval (subjects in sinus rhythm; repeat 70 mg, second dose 10 minutes after the initial dose): 21 ms | maximum percentage increase in PR interval (subjects in sinus rhythm; repeat dose of 70 mg): 14% | duration of PR increase (subjects in sinus rhythm; repeat dose of 70 mg vs single dose of 70 mg): more prolonged | increase in PR interval (subjects in sinus rhythm; single 70 mg administration): 15 ms | maximum percentage increase in PR interval (subjects in sinus rhythm; single 70 mg administration): 9% | heart rate and systolic blood pressure (subjects in sinus rhythm; single 70 mg dose and two 70 mg doses separated by 10 minutes): remain in normal ranges | safety and tolerability (subjects in sinus rhythm; two dose regimen of 70 mg compared to single dose regimen): safe and was well tolerated | time at which pharmacodynamic effect began to decrease ([6]; 35, 70 and 105 mg doses): 15 min | time to increase of PR interval and HR ([6]; 35, 70 and 105 mg doses): ≤ 10 min | duration of pharmacodynamic effect ([6]; duration of PR prolongation exceeding 10% from baseline): 30 to 45 min | exposure, dose proportionality ([6]; human, in vivo): increased in a dose proportional manner between 35 and 70 mg but not between the 70 and 105 mg doses
